This passage reports pKi results from ChEMBL document CHEMBL1134390, “Comparative molecular field analysis of dopamine D4 receptor antagonists including 3-[4-(4-chlorophenyl)piperazin-1-ylmethyl]pyrazolo[1,5-a]pyridine (FAUC 113), 3-[4-(4-chlorophenyl)piperazin-1-ylmethyl]-1H-pyrrolo-[2,3-b]pyridine (L-745,870), and clozapine” (J Med Chem, 2001).

Structures are written as SMILES.

The target in this test is T1, D(4) dopamine receptor (Homo sapiens) (UniProt P21917).
T1 sequence (whole entry): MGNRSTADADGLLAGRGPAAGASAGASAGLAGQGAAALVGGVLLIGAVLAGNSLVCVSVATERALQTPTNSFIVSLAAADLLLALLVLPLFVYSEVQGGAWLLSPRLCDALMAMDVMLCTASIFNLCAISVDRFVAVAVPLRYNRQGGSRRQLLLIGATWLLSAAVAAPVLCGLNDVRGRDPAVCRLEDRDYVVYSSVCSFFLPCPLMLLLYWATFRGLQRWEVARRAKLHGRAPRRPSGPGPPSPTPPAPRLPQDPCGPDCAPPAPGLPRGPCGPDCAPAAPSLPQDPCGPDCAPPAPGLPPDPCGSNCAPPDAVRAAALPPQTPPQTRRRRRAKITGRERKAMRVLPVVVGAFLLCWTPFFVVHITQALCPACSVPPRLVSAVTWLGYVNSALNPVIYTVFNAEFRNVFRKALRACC
Conditions: CHO-K1.
Description: Ability to displace [3H]spiperone from dopamine receptor D4.4 expressed in CHO-K1 cells
In general, pKi refers to −log10 of the Ki, conventionally taken in molar units. Consider `Clc1ccc(N2CCN(Cc3ccc[nH]3)CC2)cc1`, for which the pKi is 7.58.

`Clc1ccc(N2CCN(Cc3cc4ccccc4[nH]3)CC2)cc1`: the pKi turned out to be 7.74.

In turn, `C#Cc1cccc2c(CN3CCN(c4ccc(Cl)cc4)CC3)cnn12` came in with a pKi of 8.91.

In the case of `Ic1ccc(N2CCN(Cc3cnn4ccccc34)CC2)cc1`, the negative-log Ki (pKi) is 8.52.

The compound `OCc1ccc2c(CN3CCN(c4ccccc4)CC3)cnn2c1` registered a pKi of 7.71.

For the compound `Clc1ccc(N2CCN(Cc3cc4ccccn4n3)CC2)cc1`, the negative logarithm of the Ki (pKi) came out at 8.66.

For the compound `C#Cc1ccc(N2CCN(Cc3cnn4ccccc34)CC2)cc1`, the pKi came to 8.36.

`FC(F)(F)c1cccc(N2CCN(Cc3cnn4ccccc34)CC2)c1` returned a pKi of 8.72.

For the compound `Clc1ccc(N2CCN(Cc3cc[nH]c3)CC2)cc1`, the pKi amounted to 7.41.

As for `N#CC(C#N)=Cc1cc(CN2CCN(c3ccc(Cl)cc3)CC2)c[nH]1`, the pKi is 8.24.

Compound `Clc1ccc(N2CCN(Cc3cnn4ccccc34)CC2)cc1Cl` showed a pKi of 8.25.

For `Clc1ccc(N2CCN(Cc3ccccc3)CC2)cc1`, the pKi came out at 6.6.

In turn, `Fc1ccc(N2CCN(Cc3cnn4ccccc34)CC2)cc1` displayed a pKi of 7.7.

As for `Cc1cccn2ncc(CN3CCN(c4ccc(Cl)cc4)CC3)c12`, the negative logarithm of the Ki (pKi) was found to be 7.3.

With `Clc1cccc(N2CCN(Cc3cnn4c3ccc3ccccc34)CC2)c1`, the pKi worked out at 6.66.

For the compound `Clc1ccc(N2CCN(Cc3cnn4c(I)cccc34)CC2)cc1`, the pKi was found to be 8.3.

With `N#CC(C#N)=Cc1ccc(CN2CCN(c3ccc(Cl)cc3)CC2)[nH]1`, the pKi turned out to be 8.02.

`Clc1cccc(N2CCN(Cc3cnn4ccc5ccccc5c34)CC2)c1` gave a pKi of 6.1.

`Cc1cccc2c(CN3CCN(c4ccc(Cl)cc4)CC3)cnn12`: the pKi was found to be 8.57.

On to `CCN1CCN(Cc2cnn3ccccc23)CC1`, for which the negative-log Ki (pKi) came to 4.62.
